Test results from article PMC9181691, “Characterization of the Biomass Degrading Enzyme GuxA from Acidothermus cellulolyticus” (International Journal of Molecular Sciences, 2022).

Target: T1, GuxA GH12 domain (Acidothermus cellulolyticus, UniProt A0LSH8)
T1 construct: gene Acel_0615; GH12 catalytic domain only (between CBM3 and CBM2 of full-length GuxA), codon optimized, C-terminal hexahistidine tag, pET22b(+), E. coli BL21(DE3), 24 kDa
Assay: X-ray crystallography, crystal soak
Type: binding
Conditions: 24 h soak with excess cellobiose powder; crystals from 10% PEG 8K, 0.2 M ZnCl2, 0.1 M Na cacodylate pH 6.5; active site groove

T1 sequence (A0LSH8 entry or part of it): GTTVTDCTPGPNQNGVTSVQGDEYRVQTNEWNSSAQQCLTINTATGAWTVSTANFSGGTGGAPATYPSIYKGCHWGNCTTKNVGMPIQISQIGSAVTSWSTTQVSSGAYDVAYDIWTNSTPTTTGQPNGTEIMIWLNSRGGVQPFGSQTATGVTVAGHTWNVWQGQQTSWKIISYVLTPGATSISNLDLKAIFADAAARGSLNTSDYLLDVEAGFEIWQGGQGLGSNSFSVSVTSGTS

## OC[C@H]1O[C@@H](O[C@H]2[C@H](O)[C@@H](O)C(O)O[C@@H]2CO)[C@H](O)[C@@H](O)[C@@H]1O (stereo partly shown) [cellobiose]
  X-ray crystallography, crystal soak: A cellobiose molecule was found and modeled in the active site groove.
